Key:
Assay in all cases: concentration in plasma after dosing
Rat [1] = conditions: dosed: Dibromoacetic acid, 25 mg/kg, oral, Male, Harlan Sprague Dawley
Rat [2] = conditions: 5 min; dosed: Dibromoacetic acid; 25 mg/kg; oral; Male; Harlan Sprague Dawley
Rat [3] = conditions: dosed: Dibromoacetic acid, 25 mg/kg, oral, Male, Harlan Sprague Dawley; remark: listed apart in the source
Rat [4] = conditions: dosed: Dibromoacetic acid, 25 mg/kg, oral, Male, Harlan Sprague Dawley; remark: listed apart in the source
Rat [5] = conditions: 5 min; dosed: Dibromoacetic acid; 25 mg/kg; oral; Male; Harlan Sprague Dawley; remark: listed apart in the source
Rat [6] = conditions: dosed: Dibromoacetic acid, 25 mg/kg, oral, Male, Harlan Sprague Dawley; remark: listed apart in the source
Rat [7] = conditions: dosed: Dibromoacetic acid, 25 mg/kg, oral, Male, Harlan Sprague Dawley; remark: listed apart in the source
Rat [8] = conditions: 5 min; dosed: Dibromoacetic acid; 25 mg/kg; oral; Male; Harlan Sprague Dawley; remark: listed apart in the source
Rat [9] = conditions: 5 min; dosed: Dibromoacetic acid; 25 mg/kg; oral; Male; Harlan Sprague Dawley; remark: listed apart in the source
Rat [10] = conditions: 0.5 h; dosed: Dibromoacetic acid; 25 mg/kg; oral; Male; Harlan Sprague Dawley
Rat [11] = conditions: 40 min; dosed: Dibromoacetic acid; 10 mg/kg; iv; Male; F344
Rat [12] = conditions: 0.5 h; dosed: Dibromoacetic acid; 25 mg/kg; oral; Male; Harlan Sprague Dawley; remark: listed apart in the source
Rat [13] = conditions: dosed: Dibromoacetic acid, 110 mg/kg, iv, Female, Harlan Sprague-Dawley
Rat [14] = conditions: 20 min; dosed: Dibromoacetic acid; 10 mg/kg; iv; Male; F344
Rat [15] = conditions: dosed: Dibromoacetic acid, 25 mg/kg, oral, Male, Harlan Sprague Dawley; remark: listed apart in the source
Rat [16] = conditions: dosed: Dibromoacetic acid, 25 mg/kg, oral, Female, Harlan Sprague Dawley
Rat [17] = conditions: dosed: Dibromoacetic acid
Rat [18] = conditions: dosed: Dibromoacetic acid, 10 mg/kg, iv, Male, F344
Rat [19] = conditions: dosed: Dibromoacetic acid, 10 mg/kg, iv, Male, F344; remark: listed apart in the source
Rat [20] = conditions: 20 min; dosed: Dibromoacetic acid; 10 mg/kg; iv; Male; F344; remark: listed apart in the source
Rat [21] = conditions: dosed: Dibromoacetic acid, 110 mg/kg, iv, Female, Harlan Sprague-Dawley; remark: listed apart in the source
Rat [22] = conditions: dosed: Dibromoacetic acid, 10 mg/kg, iv, Male, F344; remark: listed apart in the source
Rat [23] = conditions: dosed: Dibromoacetic acid, 10 mg/kg, iv, Male, F344; remark: listed apart in the source
Rat [24] = conditions: 5 min; dosed: Dibromoacetic acid; 50 mg/kg; oral; Female; Harlan Sprague Dawley
Rat [25] = conditions: dosed: Dibromoacetic acid, 25 mg/kg, oral, Male, Harlan Sprague Dawley; remark: listed apart in the source
Rat [26] = conditions: 40 min; dosed: Dibromoacetic acid; 10 mg/kg; iv; Male; F344; remark: listed apart in the source
Rat [27] = conditions: 5 min; dosed: Dibromoacetic acid; 25 mg/kg; oral; Male; Harlan Sprague Dawley; remark: listed apart in the source
Rat [28] = conditions: 10 min; dosed: Dibromoacetic acid; 10 mg/kg; iv; Male; F344
Rat [29] = conditions: 0.5 h; dosed: Dibromoacetic acid; 25 mg/kg; oral; Male; Harlan Sprague Dawley; remark: listed apart in the source
Rat [30] = conditions: dosed: Dibromoacetic acid, 25 mg/kg, oral, Male, Harlan Sprague Dawley; remark: listed apart in the source
Rat [31] = conditions: dosed: Dibromoacetic acid, 25 mg/kg, oral, Male, Harlan Sprague Dawley; remark: listed apart in the source
Rat [32] = conditions: dosed: Dibromoacetic acid, 25 mg/kg, oral, Male, Harlan Sprague Dawley; remark: listed apart in the source
Rat [33] = conditions: dosed: Dibromoacetic acid, 25 mg/kg, oral, Male, Harlan Sprague Dawley; remark: listed apart in the source
Rat [34] = conditions: dosed: Dibromoacetic acid, 25 mg/kg, oral, Male, Harlan Sprague Dawley; remark: listed apart in the source
Rat [35] = conditions: dosed: Dibromoacetic acid, 25 mg/kg, oral, Male, Harlan Sprague Dawley; remark: listed apart in the source
Rat [36] = conditions: dosed: Dibromoacetic acid, 110 mg/kg, iv, Female, Harlan Sprague-Dawley; remark: listed apart in the source
Rat [37] = conditions: dosed: Dibromoacetic acid, 50 mg/kg, oral, Female, Harlan Sprague Dawley
Rat [38] = conditions: dosed: Dibromoacetic acid, 25 mg/kg, oral, Male, Harlan Sprague Dawley; remark: listed apart in the source
Rat [39] = conditions: dosed: Dibromoacetic acid, 25 mg/kg, oral, Male, Harlan Sprague Dawley; remark: listed apart in the source
Rat [40] = conditions: 10 min; dosed: Dibromoacetic acid; 10 mg/kg; iv; Male; F344; remark: listed apart in the source
Rat [41] = conditions: dosed: Dibromoacetic acid, 25 mg/kg, oral, Male, Harlan Sprague Dawley; remark: listed apart in the source
Rat [42] = conditions: dosed: Dibromoacetic acid, 25 mg/kg, oral, Male, Harlan Sprague Dawley; remark: listed apart in the source
Rat [43] = conditions: 5 min; dosed: Dibromoacetic acid; 50 mg/kg; oral; Female; Harlan Sprague Dawley; remark: listed apart in the source
Rat [44] = conditions: dosed: Dibromoacetic acid, 25 mg/kg, oral, Female, Harlan Sprague Dawley; remark: listed apart in the source
Rat [45] = conditions: 0.5 h; dosed: Dibromoacetic acid; 25 mg/kg; oral; Male; Harlan Sprague Dawley; remark: listed apart in the source

O=C(O)C(Br)Br [Dibromoacetic acid]
Conditions | concentration in plasma [ng/mL]
Rat [1], 3 h | 129
Rat [1], 10 min | 12100
Rat [3], 3 h | 1720
Rat [3], 10 min | 853
Rat [4], 0.75 h | 10200
Rat [4], 4 h | 1540
Rat [6], 1.5 h | 1550
Rat [6], 20 min | 13500
Rat [7], 1 h | 8770
Rat [7], 2 h | 1770
Rat [13], 2 h | 4660
Rat [13], 3 h | 459
Rat [15], 3 h | 476
Rat [15], 10 min | 6890
Rat [16], 1 h | 8860
Rat [16], 2 h | 1240
Rat [18], 1.25 h | 101
Rat [18], 5 min | 14500
Rat [19], 1 h | 208
Rat [19], 2 min | 28100
Rat [21], 1.5 h | 17600
Rat [21], 2 h | 5370
Rat [22], 1 h | 186
Rat [22], 2 min | 28800
Rat [23], 1.25 h | 301
Rat [23], 5 min | 12000
Rat [25], 3 h | 1620
Rat [25], 10 min | 1880
Rat [30], 0.5 h | 15000
Rat [30], 6 h | 466
Rat [31], 1 h | 8050
Rat [31], 2 h | 1280
Rat [32], 1.5 h | 3340
Rat [32], 20 min | 10700
Rat [33], 3 h | 646
Rat [33], 10 min | 5770
Rat [34], 0.75 h | 8790
Rat [34], 4 h | 592
Rat [35], 1.5 h | 2030
Rat [35], 20 min | 20900
Rat [36], 1.5 h | 20900
Rat [36], 3 h | 472
Rat [37], 3 h | 2050
Rat [37], 10 min | 9980
Rat [38], 1.5 h | 1460
Rat [38], 20 min | 13200
Rat [39], 1.5 h | 1560
Rat [39], 20 min | 24200
Rat [41], 0.75 h | 10300
Rat [41], 4 h | 772
Rat [42], 0.75 h | 6410
Rat [42], 4 h | 772
Rat [44], 1 h | 8120
Rat [44], 2 h | 887

Conditions | concentration in plasma [ng/mL]
Rat [2] | 2210
Rat [5] | 3390
Rat [8] | 1630
Rat [9] | 238
Rat [10] | 13500
Rat [11] | 607
Rat [12] | 7630
Rat [14] | 2540
Rat [20] | 1890
Rat [24] | 2800
Rat [26] | 498
Rat [27] | 294
Rat [28] | 6230
Rat [29] | 8900
Rat [40] | 7190
Rat [43] | 4030
Rat [45] | 12600

concentration in plasma [ng/mL], Rat [17]
Conditions | Female | Male
0.5 h, 25 mg/kg, oral, Harlan Sprague Dawley | – | 10800
0.75 h, 25 mg/kg, oral, Harlan Sprague Dawley | 8910 | 11500
1 h, 10 mg/kg, iv, F344 | – | 262
1 h, 25 mg/kg, oral, Harlan Sprague Dawley | 6860 | 8310
1.25 h, 10 mg/kg, iv, F344 | – | 97.1
1.5 h, 10 mg/kg, iv, F344 | – | 175
1.5 h, 25 mg/kg, oral, Harlan Sprague Dawley | – | 2000
1.5 h, 110 mg/kg, iv, Harlan Sprague-Dawley | 21600 | –
2 h, 25 mg/kg, oral, Harlan Sprague Dawley | 1460 | 1850
2 h, 110 mg/kg, iv, Harlan Sprague-Dawley | 4710 | –
2 min, 10 mg/kg, iv, F344 | – | 31000
3 h, 25 mg/kg, oral, Harlan Sprague Dawley | – | 751
3 h, 50 mg/kg, oral, Harlan Sprague Dawley | 1930 | –
3 h, 110 mg/kg, iv, Harlan Sprague-Dawley | 405 | –
4 h, 25 mg/kg, oral, Harlan Sprague Dawley | 966 | 106
5 min, 10 mg/kg, iv, F344 | – | 11500
5 min, 25 mg/kg, oral, Harlan Sprague Dawley | – | 411
5 min, 50 mg/kg, oral, Harlan Sprague Dawley | 8050 | –
6 h, 25 mg/kg, oral, Harlan Sprague Dawley | – | 109
10 min, 10 mg/kg, iv, F344 | – | 5230
10 min, 25 mg/kg, oral, Harlan Sprague Dawley | – | 4010
10 min, 50 mg/kg, oral, Harlan Sprague Dawley | 13500 | –
20 min, 10 mg/kg, iv, F344 | – | 2810
20 min, 25 mg/kg, oral, Harlan Sprague Dawley | – | 17200
40 min, 10 mg/kg, iv, F344 | – | 544

Reference: EPA's CvTdb concentration-time database
